Like-named read-outs stand apart in the source and are kept apart here.
Assays:
Kunming mice [1] = test: Analgesic activity by acetic acid-induced writhing method; assay type: in vivo; settings: for inhibition in vivo at 10 mg/kg: Mus musculus, sc, read-out: Analgesia rate ± SEM (%); for analgesic activity (in words, Table 1): comment on Table 1
Protocol: The experimental animals were Kunming mice (male:female=1:1), weighed 22±2 g, which were provided by Chengdu dossy experimental animals Co., ltd., China. The mice were kept in the animal room of the School of Life Science and Engineering, Southwest Jiaotong University, where the animal room was set at a temperature of 23±2° C., a humidity of 55±5% and a photoperiod of 16:8 h (L:D). Before the experiment, the mice were freely fed for 2-3 days with water and feed to adapt to the new environment. Then, the mice were treated by water fasting for 12 h. 10 animals were allocated to each group to ensure that there are at least 6 sets of valid data in each group. The animal experiments were carried out in strict accordance with the national regulations on the management of experimental animals.
The compounds prepared in the examples provided herein and the positive control lappaconitine were all dissolved with 0.1 mol/L HCl according to the amount of the substance ratio of 1:1, and then diluted with physiological saline to a concentration to be determined. The samples to be tested were the compounds prepared the examples provided herein; the positive control was lappaconitine; and the blank control was physiological saline containing 0.1 mol/L HCl.
The animals in the control groups were subjected to the same treatment as those in the experimental group except that the samples to be test were replaced with physiological saline.
(§1) 10 mice were randomly selected, male:female=1:1, were placed in independent cages. Each mouse was injected subcutaneously with the sample solution mentioned above at a dose of 0.1 mL/10 g body weight. After 15 min, a 0.7% acetic acid solution was intraperitoneally injected. The number of writhing reactions in each mouse within 15 minutes was recorded. The group that the mice were injected with physiological saline subcutaneously was the blank group; the group that the mice were injected with the sample to be tested was the experimental group; and the group that the mice were injected with lappaconitine was the positive group. The analgesic activity was represented by a percentage of the reduced number of writhing compared to the blank group (writhing inhibition rate), which were specifically as follows: writhing inhibition rate (analgesic activity)=(average number of writhing times in the blank group-average number of writhing times in the experimental group)/average number of writhing times in the blank group×100%.

Kunming mice [2] = test: Median effective dose (ED50) determination, acetic acid-induced writhing; assay type: in vivo; settings: for ED50: subcutaneous, writhing inhibition, Probit regression; for analgesic activity / ED50 compared with lappaconitine (in words): comment on Table 2
Protocol: as §1
The sample to be tested was dissolved with 0.1 mol/L HCl according to the amount of the substance ratio of 1:1, and diluted with physiological saline according to the proportional series to obtain at least 5 groups with different dose concentrations. The writhing inhibition rate of each dose group was tested according to the acetic acid-induced writhing method mentioned above. The obtained does-writhing inhibition data was entered into the statistical product and service solutions (SPSS) software (version 17.2), and the ED50 of the sample to be tested was calculated through the Probit regression method.

[3] = Median lethal dose (LD50) determination; assay type: in vivo, Kunming mice; settings: both sexes, Kunming, mouse, in vivo, sc; subcutaneous, survival within 24 h, Probit regression
Protocol: (§2) The sample to be tested was dissolved with 0.1 mol/L HCl according to the amount of the substance ratio of 1:1, and diluted with physiological saline according to the required concentration. 10 mice in each group were randomly selected, half of which are male and half of which were female, and were placed in independent cages. Each mouse was injected subcutaneously with different sample solutions to be tested according to a dose of 0.1 mL/10 g body weight. In the preliminary toxicity experiment, the measured concentration was 100 mg/kg, and then based on the survival rate of the experimental animals in the preliminary experiment, the sample to be tested was set to at least 5 groups with different concentration dose according to the proportional series. The survival rate of mice within 24 h was recorded. The obtained dose-survival rate data was input into the SPSS software (version 17.2), and the LD50 of the sample was calculated according to the Probit regression method.

Kunming mice [4] = test: Median lethal dose (LD50) determination; assay type: in vivo
Protocol: as §2

[5] = Mus musculus, sc, read-out: ED50
[6] = Dosing concentration 10 mg/kg, subcutaneous, 15 min before i.p. 0.7% acetic acid, writhing inhibition vs blank group

Structure (SMILES)	inhibition in vivo at 10 mg/kg (Kunming mice [1])	analgesic activity (in words, Table 1) (Kunming mice [1])	ED50 (Kunming mice [2]; [5])	analgesic activity / ED50 compared with lappaconitine (in words) (Kunming mice [2])	LD50 [3]	inhibition in vivo at 10 mg/kg (Kunming mice [1]; [6])	also measured
CCN1C[C@]2(OC(=O)c3ccccc3NS(=O)(=O)c3ccccc3)CC[C@H](OC)C34C2CC([C@@H]13)[C@@]1(O)C[C@H](OC)[C@H]2CC4[C@]1(O)[C@H]2OC (some centres unmarked) [Compound 1]	84.3 ± 3.05%	significant activity	6.1 mg/kg	same order of magnitude as that of lappaconitine	> 600 mg/kg		
CCN1C[C@]2(OC(=O)c3ccccc3NC(=O)OC)CC[C@H](OC)C34C2CC([C@@H]13)[C@@]1(O)C[C@H](OC)[C@H]2CC4[C@]1(O)[C@H]2OC (some centres unmarked) [Compound 4]	71.1 ± 5.97%	significant activity	1.2 mg/kg	doubled compared with lappaconitine	10 mg/kg		toxicity compared with lappaconitine (in words) (Kunming mice [4]; comment on Table 2): did not increase significantly
CCN1C[C@]2(OC(=O)c3ccccc3NC(=O)c3ccc(OC(C)C)cc3)CC[C@H](OC)[C@]34C1[C@H](CC23)[C@@]1(O)C[C@H](OC)[C@H]2CC4[C@]1(O)[C@H]2OC (some centres unmarked) [Compound 59]	61.1 ± 5.52%	significant activity	8.1 mg/kg	same order of magnitude as that of lappaconitine	196 mg/kg		
CCN1C[C@]2(OC(=O)c3ccccc3NS(=O)(=O)c3ccccn3)CC[C@H](OC)C34C2CC([C@@H]13)[C@@]1(O)C[C@H](OC)[C@H]2CC4[C@]1(O)[C@H]2OC (some centres unmarked) [Compound 3]	71.2 ± 2.72%	significant activity	4.7 mg/kg	same order of magnitude as that of lappaconitine	> 400 mg/kg		
CCN(CC)c1ccc(C(=O)Nc2ccccc2C(=O)O[C@@]23CC[C@H](OC)C45C2CC([C@H]4N(CC)C3)[C@@]2(O)C[C@H](OC)[C@H]3CC5[C@]2(O)[C@H]3OC)cc1 (some centres unmarked) [Compound 30]	63.9 ± 5.09%	significant activity	7.5 mg/kg	same order of magnitude as that of lappaconitine	276 mg/kg		
CCN1C[C@]2(OC(=O)c3ccccc3NC(=O)c3ccc(OC)cc3)CC[C@H](OC)C34C2CC([C@@H]13)[C@@]1(O)C[C@H](OC)[C@H]2CC4[C@]1(O)[C@H]2OC (some centres unmarked) [Compound 32]	62.8 ± 5.77%	significant activity	4.4 mg/kg	same order of magnitude as that of lappaconitine	296 mg/kg		
CCN1C[C@]2(OC(=O)c3ccccc3NS(=O)(=O)c3ccccc3OC)CC[C@H](OC)C34C2CC([C@@H]13)[C@@]1(O)C[C@H](OC)[C@H]2CC4[C@]1(O)[C@H]2OC (some centres unmarked) [Compound 2]	71.2 ± 3.8%	significant activity	5.5 mg/kg	same order of magnitude as that of lappaconitine	300 mg/kg		
CCN1C[C@]2(OC(=O)c3ccccc3NC(=O)c3ccc(N(C)C)cc3)CC[C@H](OC)C34C2CC([C@@H]13)[C@@]1(O)C[C@H](OC)[C@H]2CC4[C@]1(O)[C@H]2OC (some centres unmarked) [Compound 5]	62.1 ± 5.02%	significant activity	6.1 mg/kg	same order of magnitude as that of lappaconitine	300 mg/kg		
C/C=C/S(=O)(=O)Nc1ccccc1C(=O)O[C@@]12CC[C@H](OC)[C@@]34C1CC([C@H]3N(CC)C2)[C@@]1(O)C[C@H](OC)[C@H]2CC4[C@]1(O)[C@H]2OC (some centres unmarked) [Compound 16]						24.4 ± 8.46%	
CCN1C[C@]2(OC(=O)c3ccccc3NC(=O)c3ccc(C(=O)OC)cc3)CC[C@H](OC)C3C2C[C@@H]([C@@H]1C)[C@@]1(O)CC(OC)[C@H]2CC3[C@]1(O)[C@H]2OC (some centres unmarked) [Compound 36]						36.4 ± 9.54%	
CCOc1ccc(C(=O)Nc2ccccc2C(=O)O[C@@]23CC[C@H](OC)C45C2CC([C@H]4N(CC)C3)[C@@]2(O)C[C@H](OC)[C@H]3CC5[C@]2(O)[C@H]3OC)cc1 (some centres unmarked) [Compound 31]	62.8 ± 5.41%	significant activity	6.6 mg/kg	same order of magnitude as that of lappaconitine	315 mg/kg		
CCN1C[C@]2(OC(=O)c3ccccc3NC(=O)C3CCOC3)CC[C@H](OC)C3C2C[C@@H]([C@@H]1C)[C@@]1(O)CC(OC)[C@H]2CC3[C@]1(O)[C@H]2OC (some centres unmarked) [Compound 38]						34 ± 8.92%	
CCCCc1ccc(C(=O)Nc2ccccc2C(=O)O[C@@]23CC[C@H](OC)C4C2C[C@@H]([C@H](C)N(CC)C3)[C@@]2(O)CC(OC)[C@H]3CC4[C@]2(O)[C@H]3OC)cc1 (some centres unmarked) [Compound 44]						28.2 ± 7.88%	
CCN1C[C@]2(OC(=O)c3ccccc3NC(=O)C3CCCCC3)CC[C@H](OC)C3C2C[C@@H]([C@@H]1C)[C@@]1(O)CC(OC)[C@H]2CC3[C@]1(O)[C@H]2OC (some centres unmarked) [Compound 37]						34.5 ± 4.68%	
CCN1C[C@]2(OC(=O)c3ccccc3NS(C)(=O)=O)CC[C@H](OC)[C@@]34C2CC([C@@H]13)[C@@]1(O)C[C@H](OC)[C@H]2CC4[C@]1(O)[C@H]2OC (some centres unmarked) [Compound 17]						22.8 ± 7.58%	
CCN1C[C@]2(OC(=O)c3ccccc3NC(C)=O)CC[C@H](OC)[C@@]34[C@@H]2C[C@@H]([C@@H]13)[C@@]1(O)C[C@H](OC)[C@H]2C[C@@H]4[C@]1(O)[C@H]2OC [Lappaconitine]							Analgesia rate ± SEM (%) (Kunming mice [1]; Dosing concentration 3.5 mg/kg, subcutaneous, 15 min before i.p. 0.7% acetic acid, writhing inhibition vs blank group): 56.57 ± 6.57 %; experimental animal death from poisoning (Kunming mice [1]; dosing concentration of 10 mg/kg): more than half of the experimental animal death from poisoning; ED50 (Kunming mice [2]): 3.5 mg/kg; LD50 (Kunming mice [4]; subcutaneous, survival within 24 h, Probit regression): 11.7 mg/kg

— patent US11840517B2, “Lappaconitine derivative with analgesic activity, and preparation and application thereof” (priority 2021, dated 2023)
